Experimental data reported in patent US20260234115A1, “LIPID COMPOUNDS, COMPOSITIONS, AND USES THEREOF” (Liberate Bio, Inc., priority 2023, published 2026).
Marks after values point to notes of the source that are not given here.

How the values were obtained:
[1] = Dynamic light scattering: LNP particle size and PDI; type: physicochemical; conditions: for PDI N/P:6 / Size (nm) N/P:6: LNP
Method: (§1) Lipids and active ingredients (e.g., RNA, DNA, etc.) were assembled into LNPs using microfluidic mixing. An ethanol phase was prepared by solubilizing ionizable lipids (i.e., lipid compounds), phospholipids (e.g., DSPC), cholesterol, and PEG lipids in ethanol, at predetermined mol % ratios given in Table 2. An aqueous phase was prepared by diluting a nucleic acid cargo (e.g., firefly luciferase mRNA) in an acidified buffer (pH 4.0 citrate buffer, 50 mM). A chip with microfluidic mixing architecture (e.g., toroidal mixer) was used to mix the two phases at predetermined flow rate ratios (e.g., 9 ml/min for the aqueous phase and 3 ml/min for the ethanol phase). Resulting LNPs comprising the lipids and encapsulating the nucleic acid cargo were dialyzed against PBS pH 7.4 for 2 hours at room temperature in a 20 kDa MWCO dialysis membrane. Then, PBS was refreshed to continue dialysis overnight at 2-8 TC. Upon completion of the buffer exchange, LNPs were optionally concentrated using a ultracentrifugal unit with a 10-100 kDa MWCO membrane.
d. Dynamic Light Scattering
LNPs were diluted with PBS pH 7.4 to predetermined dilution ranges based on the process step and LNP concentration. Following mixing, the particle size and PDI were measured by a dynamic light scattering instrument.

[2] = Plate-based fluorescence (RiboGreen) assay: nucleic acid cargo content and encapsulation efficiency of LNPs; type: physicochemical; conditions: for EE (%) N/P:6: LNP
Method: as §1
c. Plate-Based Fluorescence (RiboGreen) Assay
Nucleic acid cargos in the LNPs were quantified by RiboGreen assay, against a nucleic acid standard curve. LNPs encapsulating nucleic acid cargo were mixed with 1× Tris-EDTA (TE) and 2% triton in TE, separately, to achieve dilutions required by the assay. Then, the samples were heated at 30° C. and vortexed at 300 rpm. Samples were plated into 96-well plates and RiboGreen reagent was added into each well. Following incubation in the dark, fluorescence was measured from the wells, and plotted against the standard curve. Nucleic acid concentration obtained from the Triton-treated samples were used for total cargo concentration quantification. Only TE diluted sample fluorescence values were used to determine the non-encapsulated (free) cargo, and their ratio was used to determine the encapsulation efficiency (EE %).

[3] = tested on: mouse organs; experiment: In vivo activity screening in mice: organ mean total flux (p/s) of luciferase activity after injection of F2 LNP pools (Table 6, FIG. 7A-7C); conditions: luciferase mRNA
Summary of the method: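 C57BL/6J mice given one tail-vein injection of pooled Formulation F2 LNPs carrying firefly luciferase mRNA (0.25-3 mg/kg) in PBS. At 4-6 h, s.c. D-luciferin given; organs imaged ex vivo by IVIS within 10-15 min, after saline cardiac perfusion. Mean total flux (p/s) per organ ROI.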

[4] = LNP compositions for Formulation F2 Study
[5] = LNP compositions for in vivo mouse study, four formulations (F1-F4) of the lipid compound pooled, or pools of four compounds (sixteen compositions)
[6] = LNP compositions for in vivo mouse study, four formulations (F1-F4) pooled, or pools of four compounds

Compound	Particle Size (nm) [1, 5]	PDI [1, 6]	PDI N/P:6 ([1]; Formulation F1, N/P 6)	Size (nm) N/P:6 ([1]; Formulation F1, N/P 6)	PDI N/P:6 ([1]; Formulation F2, N/P 6)	Size (nm) N/P:6 ([1]; Formulation F2, N/P 6)	PDI N/P:6 ([1]; Formulation F3, N/P 6)	Size (nm) N/P:6 ([1]; Formulation F3, N/P 6)	PDI N/P:6 ([1]; Formulation F4, N/P 6)	Size (nm) N/P:6 ([1]; Formulation F4, N/P 6)	EE % [2, 6]	mRNA Content [2, 6]	EE (%) N/P:6 ([2]; Formulation F1, N/P 6)	EE (%) N/P:6 ([2]; Formulation F2, N/P 6)	EE (%) N/P:6 ([2]; Formulation F3, N/P 6)	EE (%) N/P:6 ([2]; Formulation F4, N/P 6)	Organ Mean Total Flux Femur ([3]; Mouse 1, dose 0.3 mg/kg)	Organ Mean Total Flux Heart ([3]; Mouse 1, dose 0.3 mg/kg)	Organ Mean Total Flux Kidney ([3]; Mouse 1, dose 0.3 mg/kg)	Organ Mean Total Flux Liver ([3]; Mouse 1, dose 0.3 mg/kg)	other results
CCCCC/C=C\CCOC(=O)CCCCCC(=O)OCC(COC(=O)CCCCCC(=O)OCC/C=C\CCCCC)(COC(=O)CCC(CCCCCC)OC(=O)NCCN1CCCC1)COC(=O)CC12CC3CC(CC(C3)C1)C2 (centres unmarked) [Compound 8, O7-[2-[[2-(1-adamantyl)acetyl]oxymethyl]-2-[[7-[(Z)-non-3-enoxy]-7-oxo-heptanoyl]oxymethyl]-3-[4-(2-pyrrolidin-1-ylethylcarbamoyloxy)decanoyloxy]propyl]O1-[(Z)-non-3-enyl]heptanedioate]	101 nm	0.07	0.08	87 ± 6 nm	0.06	117 ± 4 nm	0.12	100 ± 2 nm	0.19	79 ± 1 nm	97%	108 µg/mL	100%	99%	95%	99%	11.1 p/s (×10^6)	2.8 p/s (×10^6)	0.8 p/s (×10^6)	72.4 p/s (×10^6)	PDI [1, 4]: 0.071; Particle Size (nm) [1, 4]: 119 nm; EE % [2, 4]: 98%; Organ Mean Total Flux Lung ([3]; Mouse 1, dose 0.3 mg/kg): 20.1 p/s (×10^6); Organ Mean Total Flux Muscle ([3]; Mouse 1, dose 0.3 mg/kg): 22.7 p/s (×10^6); Organ Mean Total Flux Pancreas ([3]; Mouse 1, dose 0.3 mg/kg): 4.4 p/s (×10^6); Organ Mean Total Flux Spleen ([3]; Mouse 1, dose 0.3 mg/kg): 10.7 p/s (×10^6); Organ Mean Total Flux Femur ([3]; Mouse 14, dose 0.5 mg/kg): 9.8 p/s (×10^6); Organ Mean Total Flux Heart ([3]; Mouse 14, dose 0.5 mg/kg): 2.2 p/s (×10^6); Organ Mean Total Flux Kidney ([3]; Mouse 14, dose 0.5 mg/kg): 3.6 p/s (×10^6); Organ Mean Total Flux Liver ([3]; Mouse 14, dose 0.5 mg/kg): 257.0 p/s (×10^6); Organ Mean Total Flux Lung ([3]; Mouse 14, dose 0.5 mg/kg): 6.4 p/s (×10^6); Organ Mean Total Flux Muscle ([3]; Mouse 14, dose 0.5 mg/kg): 46.9 p/s (×10^6); Organ Mean Total Flux Pancreas ([3]; Mouse 14, dose 0.5 mg/kg): 4.0 p/s (×10^6); Organ Mean Total Flux Spleen ([3]; Mouse 14, dose 0.5 mg/kg): 10.4 p/s (×10^6)
CCCCC/C=C\CCOC(=O)CCCCCC(=O)OCC(COC(=O)CCCCCC(=O)OCC/C=C\CCCCC)(COC(=O)CCC(CCCCCC)OC(=O)NCCN1CCCC1)COC(=O)CCC(OCCCCCCCC)OCCCCCCCC (centres unmarked) [Compound 9, O7-[2-(4,4-dioctoxybutanoyloxymethyl)-2-[[7-[(Z)-non-3-enoxy]-7-oxo-heptanoyl]oxymethyl]-3-[4-(2-pyrrolidin-1ylethylcarbamoyloxy)decanoyloxy]propyl]O1-[(Z)-non-3-enyl]heptanedioate]	79 nm	0.07	0.07	68 ± 2 nm	0.03	76 ± 1 nm	0.03	92 ± 2 nm	0.13	63 ± 1 nm	97%	102 µg/mL	100%	100%	99%	99%	7.6 p/s (×10^6)	1.4 p/s (×10^6)	3.4 p/s (×10^6)	3583 p/s (×10^6)	Organ Mean Total Flux Lung ([3]; Mouse 1, dose 0.3 mg/kg): 29.8 p/s (×10^6); Organ Mean Total Flux Muscle ([3]; Mouse 1, dose 0.3 mg/kg): 8.3 p/s (×10^6); Organ Mean Total Flux Pancreas ([3]; Mouse 1, dose 0.3 mg/kg): 6.7 p/s (×10^6); Organ Mean Total Flux Spleen ([3]; Mouse 1, dose 0.3 mg/kg): 32.5 p/s (×10^6)
